# Measured values reported in patent US11826466B2, “Bendamustine solution formulations” (Navinta, LLC, priority 2016, dated 2023).
# Structures can show the parent of a compound that is named as a salt.
# How the values were obtained:
# [1] = room temperature; reported in U.S. Pat. No. 8,344,006; cited from earlier work
# [2] = Solubility of Bendamustine Hydrochloride in DMA-Water Mixture; type: physicochemical; conditions: organic solvent or mixture, thermodynamic from solid, 5° C.
# Description: To 10 ml of DMA-water mixture, excess (˜2-3 g) of Bendamustine Hydrochloride hydrate was added and the mixture was stirred for 24 hr while keeping in a constant temperature bath. After 24 hr, the mixture was centrifuged to remove the undissolved solid and the supernatant was filtered through a 0.2 micron filter. The clear filtrate was assayed.
# [3] = Solubility of Bendamustine Hydrochloride in DMA
smiles,measurement,setting,value
Cn1c(CCCC(=O)O)nc2cc(N(CCCl)CCCl)ccc21 [Bendamustine Hydrochloride],solubility in DMA,[1],about 56 mg/mL
Cn1c(CCCC(=O)O)nc2cc(N(CCCl)CCCl)ccc21 [Bendamustine Hydrochloride hydrate],solubility at 24 h,[2]; DMA:Water 60:40,67 mg/mL
same,solubility at 24 h,[2]; DMA:Water 80:20,169 mg/mL
same,solubility at 24 h,[2]; DMA:Water 90:10,201 mg/mL
same,solubility at 24 h,[2]; DMA:Water 95:5,114 mg/mL
same,solubility at 24 h,[2]; DMA:Water 97:3,116 mg/mL
same,solubility at 24 h,[2]; DMA,72 mg/mL
same,concentration of solutions in DMA made by adding water to DMA,[3]; DMA with added water,up to 200 mg/mL
same,solubility,"[3]; DMA, 2 °C, organic solvent or mixture",~65 mg/mL
